From patent US10849865B2, “Method of reducing neuronal cell death with haloalkylamines” (THE UNIVERSITY OF MONTANA, priority 2013, dated 2020)
“Also recorded” adds a separate entry of the source.

Key:
[1] = test system: α-1 and α-2 adrenergic receptors; conditions: following intravenous administration; cited from earlier work
[2] = test system: rat lateral fluid percussion injury (LFP) model of severe TBI; assay: Foot fault assessment after severe TBI (lateral fluid percussion); format: in vivo
Experimental: Briefly, rats were set on an elevated grid. With each weight-bearing step, the paw may fall or slip off the wire grid. Each time the left forelimb (affected by damage to the right hemisphere) missed a placement on the wire rack it was recorded as a foot fault. The total number of steps (movement of each forelimb) that the rat used to cross the grid was counted, and the total numbers of foot faults for each forelimb was recorded.
(§1) We selected the test dose for phenoxybenzamine based on current FDA approved levels. […] Assuming a typical adult weighs 70 kg, this represents 1.7 mg/kg body weight. Therefore, we selected a slightly lower, single, intravenous dose of 1 mg/kg body weight. This dose was administered at the clinically relevant time point of 8 hours after severe TBI. Therapeutic effectiveness was determined based on behavioral and cognitive outcomes.

[3] = test system: α-1 receptors; conditions: 8 days after a single administration; cited from earlier work
[4] = test system: rat lateral fluid percussion injury (LFP) model of severe TBI; assay: Neurological severity scoring (NSS) after severe TBI (lateral fluid percussion); format: in vivo
Experimental: Assessments were conducted on days 1, 7, 14, 21, and 30 by a blinded observer. Animals were scored from 0-16 with 0 indicating no impairment, and 16 indicating maximal impairment. Scoring criteria for a severe TBI was 16-10, a moderate TBI was 9-5 and a mild TBI was 4-1. Animals scoring and NSS of 9 or less on day 1 were identified as having a moderate/mild injury and were excluded.
as §1

[5] = stuffy nose, mild drowsiness, blurred vision, and upset stomach; cited from earlier work
[6] = test system: CCL2; assay: Gene array analysis of cortical tissue after severe TBI: CCL2; conditions: 32 hours after the injury (treatment at 8 hours + 24 hours); versus uninjured controls
Description: (§2) For experiments requiring TBI, a rat model was used. Male Wistar rats (350-500 g) were obtained from Charles River Laboratories (Wilmington, Mass.) and housed with a 12-hour light/dark cycle and ad libitum access to food and water. Severe TBI was induced using the lateral fluid percussion (LFP) procedure as previously described (Rau et al., 2012, J Trauma and Acute Care Surgery 73:S165). Briefly, a 5 mm trephination was made over the right hemisphere equidistant from the lambda and the bregma. Animals were given a fluid pulse to the brain at 1.9-2.3 atm of pressure for 20 msec. All animals experienced apnea and were manually ventilated until normal breathing occurred. […] Saline treated animals underwent the same tail vein injection procedure receiving only pre-warmed saline.
(§3) This time point was chosen in an effort to detect possible gene changes that would affect the development of secondary damage.

[7] = test system: IL-1β; assay: Gene array analysis of cortical tissue after severe TBI: IL-1β; conditions: 32 hours after the injury (treatment at 8 hours + 24 hours); versus uninjured controls
Description: as §2, §3

[8] = test system: rat hippocampal slice cultures exposed to oxygen-glucose deprivation (OGD); assay: Rat hippocampal slice culture oxygen-glucose deprivation (RHSC-OGD) model, propidium iodide staining; format: cell-based
Experimental: All experimental animal procedures were approved by the University of Montana Institutional Animal Care and Use Committee in accordance with National Institutes of Health guide for the care and use of Laboratory animals (NIH Publications No. 8023). Hippocampal slice cultures were prepared from the brains of 7-day-old Sprague-Dawley rat pups as previously described (Selkirk et al., 2005, Eur J Neur 21:2291). After 7 days in culture, slices were exposed to oxygen-glucose deprivation (OGD). A glucose free balanced salt solution (BSS) composed of 120 mM NaCl, 5 mM KCl, 1.25 mM NaH2PO4, 2 mM MgSO4, 2 mM CaCl2, 25 mM NaHCO3, 20 mM HEPES, 25 mM sucrose; pH 7.3 was bubbled for one hour with 5% CO2/95% N2 at 10 L/hour. Slices were washed 6 times in deoxygenated SBSS to remove residual glucose, transferred into deoxygenated SBSS, and placed in a 37° C. chamber (Pro-Ox) with an oxygen feedback sensor that maintained gas levels at 0.1% O2, 5% CO2, 94.4% Nitrogen for 60 min. After OGD, the slices were immediately transferred back into pre-warmed Neurobasal media (containing B27 without anti-oxidants) under normal oxygen conditions. […] Neuronal damage was determined by staining slices with propidium iodide (PI; Molecular Probes, Eugene, Oreg.) and quantifying the relative fluorescence intensity (excitation 540/emission 630) using ImagePro Plus software (Media Cybernetics, Silver Springs, Md.). Propidium iodide […] was added to the media at a concentration of 2 μM (Noraberg et al., 1999, Brain Research Protocols 3:278), 4 hours prior to OGD. Images were taken of the hippocampal slices prior to OGD to establish baseline fluorescence. After OGD, slices were placed in normal media containing 2 μM PI and imaged again at 24 hours post-OGD using fluorescence optics with an Olympus IMT-2 microscope and a Hamamatsu camera. The total fluorescent intensity in each slice was determined using ImagePro Plus software (Media Cybernetics, Silver Springs, Md.) and all values were expressed as the percent change from untreated slices exposed to OGD.

[9] = test system: MyD88; assay: Gene array analysis of cortical tissue after severe TBI: MyD88; conditions: 32 hours after the injury (treatment at 8 hours + 24 hours); versus uninjured controls
Description: as §2, §3

[10] = test system: rat lateral fluid percussion injury (LFP) model of severe TBI; assay: Morris water maze (MWM) cognitive function after severe TBI; format: in vivo
Experimental: The Morris water maze (MWM) was used to assess the impact of phenoxybenzamine on cognitive function (learning and memory) following TBI. […] Pre-acclimation began on day 24 post-TBI. The training phase began on day 25 post-injury, and the probe trial was conducted on day 30 post-injury.

[11] = test system: α-1 and α-2 adrenergic receptors; conditions: with secondary α-2 antagonism; cited from earlier work
[12] = target: calmodulin (CaM)/CaMKII (Homo sapiens, UniProt P0DP23); conditions: cited from earlier work
[13] = 1 mg/kg body weight, over 30 days after TBI
[14] = 1 mg/kg i.v. 8 hours after severe TBI, 24 hours or 7 days after the TBI
[15] = administered 8 hours after TBI, probe trial day 30 post-injury

## CC(COc1ccccc1)N(CCCl)Cc1ccccc1 (stereo not shown) [phenoxybenzamine]
[1]
  time to peak effect of receptor antagonism: approximately 1 hour
[2]; [13]
  behavioral function, foot fault assessments (FIG. 3B): significantly improved behavioral function
[2]; [14]
  foot fault scoring, difference from saline treated animals: no significant differences
[3]
  α-1 receptors recovered: 50%
[4]; [13]
  behavioral function, neurological severity score (FIG. 3A): significantly improved behavioral function
[4]; [14]
  NSS, difference from saline treated animals: no significant differences
[5]
  side effects: minimal
[6]
  CCL2 expression in cortical tissue after severe TBI: no significant increase; also recorded: did not differ from uninjured controls
[7]
  IL-1β expression in cortical tissue after severe TBI: no significant increase; also recorded: did not differ from uninjured controls; also recorded: did not have a significant increase
[8]; 100 μM added at 2, 4, and 8 hours post-OGD
  prevention of neuronal death from OGD (propidium iodide fluorescence): prevented neuronal death from OGD in all regions of the hippocampus
[8]; 100 μM added at 16 hours post-OGD
  prevention of neuronal death from OGD (propidium iodide fluorescence): prevented neuronal death only in the CA1 region of the hippocampus
[8]; delivered up to 16 hours after OGD
  neuroprotection when delivered after OGD (FIG. 2): significant neuroprotection
[9]
  MyD88 expression in cortical tissue after severe TBI: no significant increase; also recorded: did not differ from uninjured controls; also recorded: equivalent to uninjured controls
[10]; Morris water maze latency and target quadrant time
  learning and memory after severe TBI (FIG. 4): significantly improved learning and memory
[10]; administered 8 hours after TBI, any of the training days
  MWM learning compared to un-injured sham controls: not significantly different from the un-injured sham control animals
[10]; [15]
  MWM probe trial compared to un-injured sham controls: did not differ from un-injured sham controls
  MWM probe trial, time spent searching the target quadrant: approximately 28%
[11]
  α-1 adrenergic antagonism: potent α-1 adrenergic antagonist
[12]
  inhibition of CaM/CaMKII activity: potent inhibitor
